Assays:
Assay in all cases: KINOMEscan competition binding
Details in all cases: compound 10.0 µM
[1] = tested on: EGFR (human), P00533 [747-751 del / S ins]
[2] = target: TTK (human) (UniProt P33981)
[3] = target: GAK (human) (UniProt O14976)
[4] = target: STK10 (human) (UniProt O94804)
[5] = target: FRK (human) (UniProt P42685)
[6] = target: PTK2 (human) (UniProt Q05397)
[7] = tested on: EGFR (human), P00533 [P753S; 747-752 del]
[8] = tested on: EGFR (human), P00533 [A750P; 747-749 del]
[9] = target: PLK1 (human) (UniProt P53350)
[10] = target: RPS6KA6 KD2 (human) (UniProt Q9UK32)
[11] = target: PLK3 (human) (UniProt Q9H4B4)
[12] = tested on: ABL1 (human), P00519 [F317L]
[13] = target: SIK1 (human) (UniProt P57059)
[14] = target: PTK2B (human) (UniProt Q14289)
[15] = target: DAPK3 (human) (UniProt O43293)
[16] = target: SLK (human) (UniProt Q9H2G2)
[17] = target: TNK2 (human) (UniProt Q07912)
Chain of TNK2 (human) (Q07912 whole entry, looked up): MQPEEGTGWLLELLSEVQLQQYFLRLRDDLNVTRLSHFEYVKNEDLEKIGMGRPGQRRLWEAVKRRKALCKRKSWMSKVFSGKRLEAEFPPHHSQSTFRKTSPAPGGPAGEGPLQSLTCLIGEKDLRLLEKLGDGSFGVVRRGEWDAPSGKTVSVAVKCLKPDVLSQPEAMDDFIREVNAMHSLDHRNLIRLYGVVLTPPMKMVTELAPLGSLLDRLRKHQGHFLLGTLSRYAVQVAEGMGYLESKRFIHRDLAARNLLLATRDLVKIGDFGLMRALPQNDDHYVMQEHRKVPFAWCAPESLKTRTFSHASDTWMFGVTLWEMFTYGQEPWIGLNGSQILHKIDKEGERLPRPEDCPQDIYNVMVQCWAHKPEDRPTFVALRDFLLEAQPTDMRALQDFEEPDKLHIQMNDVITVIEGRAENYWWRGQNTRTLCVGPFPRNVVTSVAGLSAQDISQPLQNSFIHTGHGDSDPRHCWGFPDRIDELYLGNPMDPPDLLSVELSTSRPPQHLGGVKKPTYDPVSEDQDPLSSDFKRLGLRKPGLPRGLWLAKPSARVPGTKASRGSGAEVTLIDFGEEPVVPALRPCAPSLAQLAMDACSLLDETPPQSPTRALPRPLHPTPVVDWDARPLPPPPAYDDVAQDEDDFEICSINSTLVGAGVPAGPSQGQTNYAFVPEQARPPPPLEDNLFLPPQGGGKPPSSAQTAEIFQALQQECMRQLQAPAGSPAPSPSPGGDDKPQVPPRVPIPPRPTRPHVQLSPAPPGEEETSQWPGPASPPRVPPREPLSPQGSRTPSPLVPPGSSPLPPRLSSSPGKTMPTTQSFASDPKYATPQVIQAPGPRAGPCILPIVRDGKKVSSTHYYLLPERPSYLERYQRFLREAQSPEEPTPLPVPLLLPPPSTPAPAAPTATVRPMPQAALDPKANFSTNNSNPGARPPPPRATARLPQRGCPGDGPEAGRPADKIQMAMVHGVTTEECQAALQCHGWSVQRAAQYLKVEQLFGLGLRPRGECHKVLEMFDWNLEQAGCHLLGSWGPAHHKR

[18] = tested on: EGFR (human), P00533 [G719C; 746-750 del]
[19] = target: PDGFRB (human) (UniProt P09619)
[20] = target: KIT (human) (UniProt P10721)
[21] = tested on: KIT (human), P10721 [V559D]
[22] = target: DDR1 (human) (UniProt Q08345)
[23] = target: TIE1 (human) (UniProt P35590)
[24] = target: MAPK7 (human) (UniProt Q13164)
[25] = tested on: FLT3 (human), P36888 [ITD]
[26] = tested on: ABL1 (human), P00519 [F317I]
[27] = target: FLT3 (human) (UniProt P36888)
[28] = tested on: FLT3 (human), P36888 [D835Y]
[29] = target: CLK4 (human) (UniProt Q9HAZ1)
[30] = target: PTK6 (human) (UniProt Q13882)
[31] = target: MKNK2 (human) (UniProt Q9HBH9)
[32] = target: CLK1 (human) (UniProt P49759)
[33] = target: ALK (human) (UniProt Q9UM73)
[34] = target: CAMK2A (human) (UniProt Q9UQM7)
[35] = tested on: FLT3 (human), P36888 [N841I]
[36] = target: DCLK3 (human) (UniProt Q9C098)
[37] = tested on: FLT3 (human), P36888 [D835H]
[38] = target: CAMK2B (human) (UniProt Q13554)
[39] = target: ULK2 (human) (UniProt Q8IYT8)
[40] = target: MYLK4 (human) (UniProt Q86YV6)
[41] = target: CAMK2G (human) (UniProt Q13555)
[42] = target: CAMK2D (human) (UniProt Q13557)
[43] = target: DCLK2 (human) (UniProt Q8N568)
[44] = target: TNK1 (human) (UniProt Q13470)
[45] = target: DYRK1B (human) (UniProt Q9Y463)
[46] = target: PHKG1 (human) (UniProt Q16816)
Chain of PHKG1 (human) (Q16816 whole entry, looked up): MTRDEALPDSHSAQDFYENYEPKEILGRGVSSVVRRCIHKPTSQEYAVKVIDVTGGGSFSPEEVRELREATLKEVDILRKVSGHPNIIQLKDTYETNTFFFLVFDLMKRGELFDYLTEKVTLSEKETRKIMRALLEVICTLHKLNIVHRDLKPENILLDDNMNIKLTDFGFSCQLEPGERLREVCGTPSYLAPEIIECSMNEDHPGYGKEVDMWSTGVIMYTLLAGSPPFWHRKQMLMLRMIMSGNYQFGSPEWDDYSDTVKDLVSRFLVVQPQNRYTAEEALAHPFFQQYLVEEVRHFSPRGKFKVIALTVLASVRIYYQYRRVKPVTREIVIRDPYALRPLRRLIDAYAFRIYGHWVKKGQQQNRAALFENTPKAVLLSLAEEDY

[47] = target: DCLK1 (human) (UniProt O15075)
[48] = tested on: FLT3 (human), P36888 [K663Q]

Chain of TTK (human) (P33981 whole entry, looked up): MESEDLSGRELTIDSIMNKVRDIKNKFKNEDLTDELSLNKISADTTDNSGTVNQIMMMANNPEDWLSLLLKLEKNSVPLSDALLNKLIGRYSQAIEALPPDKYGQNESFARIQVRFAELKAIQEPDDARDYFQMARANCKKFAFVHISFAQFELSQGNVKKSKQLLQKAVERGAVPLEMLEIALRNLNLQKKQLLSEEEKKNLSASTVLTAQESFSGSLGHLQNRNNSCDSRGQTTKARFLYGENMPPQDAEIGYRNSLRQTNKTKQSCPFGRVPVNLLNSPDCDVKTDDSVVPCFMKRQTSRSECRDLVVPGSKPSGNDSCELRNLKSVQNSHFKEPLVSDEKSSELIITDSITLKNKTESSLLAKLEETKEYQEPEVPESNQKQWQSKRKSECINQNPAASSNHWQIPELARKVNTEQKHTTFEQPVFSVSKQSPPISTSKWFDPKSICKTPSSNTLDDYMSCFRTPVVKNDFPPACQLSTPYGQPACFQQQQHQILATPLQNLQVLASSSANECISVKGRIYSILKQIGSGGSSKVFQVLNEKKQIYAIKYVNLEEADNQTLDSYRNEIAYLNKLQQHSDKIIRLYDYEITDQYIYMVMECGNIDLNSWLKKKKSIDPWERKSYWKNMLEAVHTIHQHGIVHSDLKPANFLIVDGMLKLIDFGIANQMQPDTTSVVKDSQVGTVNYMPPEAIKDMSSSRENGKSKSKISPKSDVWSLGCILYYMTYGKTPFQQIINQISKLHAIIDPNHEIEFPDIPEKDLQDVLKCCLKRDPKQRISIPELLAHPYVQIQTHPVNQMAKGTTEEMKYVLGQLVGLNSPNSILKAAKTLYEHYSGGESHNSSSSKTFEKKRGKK
Chain of STK10 (human) (O94804 whole entry, looked up): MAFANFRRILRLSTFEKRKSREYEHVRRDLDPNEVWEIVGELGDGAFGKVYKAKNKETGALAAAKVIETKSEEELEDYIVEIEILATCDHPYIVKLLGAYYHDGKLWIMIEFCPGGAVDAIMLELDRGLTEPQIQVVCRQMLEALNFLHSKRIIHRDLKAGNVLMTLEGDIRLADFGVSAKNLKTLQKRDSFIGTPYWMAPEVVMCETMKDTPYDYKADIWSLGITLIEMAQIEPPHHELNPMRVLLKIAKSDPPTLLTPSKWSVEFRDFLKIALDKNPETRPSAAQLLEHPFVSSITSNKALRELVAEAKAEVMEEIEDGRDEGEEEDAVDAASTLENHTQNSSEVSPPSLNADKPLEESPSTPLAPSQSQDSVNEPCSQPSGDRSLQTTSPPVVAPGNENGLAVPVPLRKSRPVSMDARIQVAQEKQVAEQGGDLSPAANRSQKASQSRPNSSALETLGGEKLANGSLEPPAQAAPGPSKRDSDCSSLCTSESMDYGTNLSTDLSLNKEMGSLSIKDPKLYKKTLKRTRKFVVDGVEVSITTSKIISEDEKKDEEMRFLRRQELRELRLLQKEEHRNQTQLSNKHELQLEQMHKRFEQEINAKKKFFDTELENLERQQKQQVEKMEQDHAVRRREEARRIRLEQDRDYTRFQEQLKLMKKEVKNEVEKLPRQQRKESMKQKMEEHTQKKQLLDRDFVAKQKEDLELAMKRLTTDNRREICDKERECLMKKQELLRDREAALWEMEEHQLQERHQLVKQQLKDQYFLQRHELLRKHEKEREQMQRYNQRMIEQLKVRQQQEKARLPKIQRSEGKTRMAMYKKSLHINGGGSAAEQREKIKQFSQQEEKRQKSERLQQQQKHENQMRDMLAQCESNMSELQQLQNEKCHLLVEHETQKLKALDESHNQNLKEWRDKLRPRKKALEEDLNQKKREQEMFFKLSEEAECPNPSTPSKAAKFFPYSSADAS
Chain of GAK (human) (O14976 whole entry, looked up): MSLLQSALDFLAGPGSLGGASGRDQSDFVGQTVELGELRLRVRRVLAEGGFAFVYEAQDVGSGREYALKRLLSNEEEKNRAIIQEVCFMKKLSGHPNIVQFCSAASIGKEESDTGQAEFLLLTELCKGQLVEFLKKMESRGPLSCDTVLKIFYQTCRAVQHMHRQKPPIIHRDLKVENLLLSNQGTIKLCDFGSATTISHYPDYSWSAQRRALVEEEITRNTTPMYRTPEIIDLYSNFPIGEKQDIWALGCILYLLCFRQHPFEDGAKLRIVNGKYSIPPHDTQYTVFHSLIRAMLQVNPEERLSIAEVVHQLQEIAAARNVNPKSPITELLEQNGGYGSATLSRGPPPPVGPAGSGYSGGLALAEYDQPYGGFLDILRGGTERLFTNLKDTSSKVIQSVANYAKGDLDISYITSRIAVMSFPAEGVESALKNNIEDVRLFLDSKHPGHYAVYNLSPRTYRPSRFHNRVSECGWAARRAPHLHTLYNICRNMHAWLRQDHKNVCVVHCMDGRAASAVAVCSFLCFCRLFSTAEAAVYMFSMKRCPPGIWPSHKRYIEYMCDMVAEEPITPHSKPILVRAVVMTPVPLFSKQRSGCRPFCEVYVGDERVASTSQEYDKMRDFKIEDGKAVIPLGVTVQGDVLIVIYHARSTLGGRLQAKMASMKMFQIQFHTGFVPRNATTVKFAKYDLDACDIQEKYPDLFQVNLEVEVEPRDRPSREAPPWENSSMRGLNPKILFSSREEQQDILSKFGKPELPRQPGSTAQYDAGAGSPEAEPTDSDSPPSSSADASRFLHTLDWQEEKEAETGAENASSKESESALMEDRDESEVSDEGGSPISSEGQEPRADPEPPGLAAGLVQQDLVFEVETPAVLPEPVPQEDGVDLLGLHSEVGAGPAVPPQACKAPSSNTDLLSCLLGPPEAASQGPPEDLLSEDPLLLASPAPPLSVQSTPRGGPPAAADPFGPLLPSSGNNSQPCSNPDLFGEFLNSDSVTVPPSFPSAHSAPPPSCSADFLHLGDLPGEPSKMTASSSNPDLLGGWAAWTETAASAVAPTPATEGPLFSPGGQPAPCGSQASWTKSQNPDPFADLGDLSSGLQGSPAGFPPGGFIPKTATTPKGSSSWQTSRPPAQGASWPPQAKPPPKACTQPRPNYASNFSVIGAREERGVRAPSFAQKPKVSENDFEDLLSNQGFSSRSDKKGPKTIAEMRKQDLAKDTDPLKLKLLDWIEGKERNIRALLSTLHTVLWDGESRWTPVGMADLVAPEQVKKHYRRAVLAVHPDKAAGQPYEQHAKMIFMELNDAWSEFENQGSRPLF
Chain of FRK (human) (P42685 whole entry, looked up): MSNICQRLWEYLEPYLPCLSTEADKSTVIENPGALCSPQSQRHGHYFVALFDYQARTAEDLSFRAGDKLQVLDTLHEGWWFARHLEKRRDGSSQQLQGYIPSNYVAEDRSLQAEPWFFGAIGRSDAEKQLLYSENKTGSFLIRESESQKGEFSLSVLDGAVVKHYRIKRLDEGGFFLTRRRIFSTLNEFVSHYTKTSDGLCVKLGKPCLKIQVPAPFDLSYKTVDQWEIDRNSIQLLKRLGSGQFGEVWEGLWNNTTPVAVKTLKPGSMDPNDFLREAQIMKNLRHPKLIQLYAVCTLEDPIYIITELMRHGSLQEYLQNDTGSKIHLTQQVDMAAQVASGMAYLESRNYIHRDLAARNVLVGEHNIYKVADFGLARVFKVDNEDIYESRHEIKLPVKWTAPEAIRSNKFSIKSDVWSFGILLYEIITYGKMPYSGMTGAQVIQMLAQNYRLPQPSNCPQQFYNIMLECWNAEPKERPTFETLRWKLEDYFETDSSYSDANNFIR

COc1cc(N2CCC(N3CCN(C)CC3)CC2)ccc1Nc1ncc2c(n1)N(C1CCCC1)C(C)CC(=O)N2 (centres undefined)
kinase still bound, per cent of control [1]: 32% | kinase still bound, per cent of control [2]: 12% | kinase still bound, per cent of control [3]: 1.2% | kinase still bound, per cent of control [4]: 19% | kinase still bound, per cent of control [5]: 16% | kinase still bound, per cent of control [6]: 7.1% | kinase still bound, per cent of control [7]: 32% | kinase still bound, per cent of control [8]: 33% | kinase still bound, per cent of control [9]: 0% | kinase still bound, per cent of control [10]: 12% | kinase still bound, per cent of control [11]: 26% | kinase still bound, per cent of control [12]: 29% | kinase still bound, per cent of control [13]: 27% | kinase still bound, per cent of control [14]: 23% | kinase still bound, per cent of control [15]: 28% | kinase still bound, per cent of control [16]: 7.2% | kinase still bound, per cent of control [17]: 11% | kinase still bound, per cent of control [18]: 30%

NS(=O)(=O)c1ccc(-c2ccc(/C=C3/C(=O)NN(c4ccccc4)C3=O)o2)cc1
kinase still bound, per cent of control [19]: 33% | kinase still bound, per cent of control [4]: 27% | kinase still bound, per cent of control [20]: 25% | kinase still bound, per cent of control [21]: 29% | kinase still bound, per cent of control [22]: 34% | kinase still bound, per cent of control [23]: 25%

COc1cc(N2CCN(C)CC2)ccc1Nc1ncc2c(n1)N(C(C)C)c1ccccc1C(=O)N2
kinase still bound, per cent of control [24]: 30% | kinase still bound, per cent of control [25]: 6.5% | kinase still bound, per cent of control [2]: 1% | kinase still bound, per cent of control [3]: 2% | kinase still bound, per cent of control [5]: 26% | kinase still bound, per cent of control [26]: 15% | kinase still bound, per cent of control [27]: 13% | kinase still bound, per cent of control [28]: 2% | kinase still bound, per cent of control [29]: 20% | kinase still bound, per cent of control [30]: 13% | kinase still bound, per cent of control [31]: 0.8% | kinase still bound, per cent of control [32]: 27% | kinase still bound, per cent of control [33]: 30% | kinase still bound, per cent of control [34]: 5.4% | kinase still bound, per cent of control [35]: 0.35% | kinase still bound, per cent of control [36]: 11% | kinase still bound, per cent of control [12]: 25% | kinase still bound, per cent of control [37]: 18% | kinase still bound, per cent of control [38]: 21% | kinase still bound, per cent of control [39]: 27% | kinase still bound, per cent of control [40]: 5.8% | kinase still bound, per cent of control [41]: 25% | kinase still bound, per cent of control [42]: 7.7% | kinase still bound, per cent of control [17]: 8.4% | kinase still bound, per cent of control [43]: 17% | kinase still bound, per cent of control [44]: 10% | kinase still bound, per cent of control [45]: 12% | kinase still bound, per cent of control [46]: 9.2% | kinase still bound, per cent of control [47]: 5.4% | kinase still bound, per cent of control [48]: 13%

Reference: the kinase profiling compilation of Christmann-Franck et al. (2016)
